What was measured:
[1] = target: E3 ubiquitin-protein ligase Mdm2 (Homo sapiens, UniProt Q00987); assay: Fluorescence Anisotropy Competition Binding Assay
Experimental: (§1) Inhibitory activities of NAPAs were measured by fluorescence anisotropy competition experiments. Protein was incubated with fluorescein-labeled human p53 peptide in the presence of test compound. Experiments were performed with a 70-fold molar excess of protein over labeled p53-peptide to ensure that the peptide is completely bound by the protein. […] Fluorescence anisotropy was measured at 25 deg C on a Beacon 2000 (PanVera, Madison, WI). Data points were measured in triplicate. IC50 values were calculated by nonlinear regression curve fitting.

[2] = target: T1, Protein Mdm4 (Homo sapiens, UniProt O15151); assay: Fluorescence Anisotropy Competition Binding Assay
T1 sequence (O15151 whole entry): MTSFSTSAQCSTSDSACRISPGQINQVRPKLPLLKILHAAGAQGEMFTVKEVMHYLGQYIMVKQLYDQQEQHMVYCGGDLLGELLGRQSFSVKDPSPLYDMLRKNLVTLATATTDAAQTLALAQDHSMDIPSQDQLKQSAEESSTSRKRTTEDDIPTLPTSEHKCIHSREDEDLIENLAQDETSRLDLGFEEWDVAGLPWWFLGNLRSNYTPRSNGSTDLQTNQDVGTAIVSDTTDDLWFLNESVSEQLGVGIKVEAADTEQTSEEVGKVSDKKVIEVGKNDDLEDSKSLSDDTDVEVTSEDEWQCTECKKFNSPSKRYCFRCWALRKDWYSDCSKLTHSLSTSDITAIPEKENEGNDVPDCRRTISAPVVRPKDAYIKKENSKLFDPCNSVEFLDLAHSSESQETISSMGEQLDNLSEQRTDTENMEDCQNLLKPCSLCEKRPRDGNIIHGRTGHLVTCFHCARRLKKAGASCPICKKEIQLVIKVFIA
Experimental: as §1

Sequence of E3 ubiquitin-protein ligase Mdm2 (Q00987 whole entry): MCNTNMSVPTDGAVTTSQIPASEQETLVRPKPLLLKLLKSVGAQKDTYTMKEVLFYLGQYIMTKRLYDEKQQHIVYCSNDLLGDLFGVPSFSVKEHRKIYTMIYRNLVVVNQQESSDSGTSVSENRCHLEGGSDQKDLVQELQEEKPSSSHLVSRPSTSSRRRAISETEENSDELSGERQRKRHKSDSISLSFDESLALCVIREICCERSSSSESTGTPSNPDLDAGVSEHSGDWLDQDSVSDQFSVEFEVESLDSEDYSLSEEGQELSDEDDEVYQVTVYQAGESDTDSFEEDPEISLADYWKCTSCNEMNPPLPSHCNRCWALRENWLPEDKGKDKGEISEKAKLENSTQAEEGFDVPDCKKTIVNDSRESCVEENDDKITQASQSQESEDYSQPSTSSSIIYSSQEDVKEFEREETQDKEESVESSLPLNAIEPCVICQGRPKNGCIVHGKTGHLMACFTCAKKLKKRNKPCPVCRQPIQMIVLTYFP

Row | IC50 ([1]; pH 7.6, 23 °C) | IC50 [2] | IC50 [1] | Structure (SMILES)
1 | 10.5 µM | 7.6 µM | – | NCCCCC(CN(C(=O)NCCc1ccc(Br)cc1)C(CCC(=O)O)CN(CCC(N)=O)C(=O)NCCCc1ccc(Br)cc1)N(CC(CCC(=O)O)NC(=O)Nc1ccccc1)C(=O)NCCCC1CCCCC1 (centres undefined) [N-acylpolyamine (NAPA) scaffold, 19]
2 | – | > 100 µM | > 100 µM | CC(C)CCC(=O)NC(CCC(=O)O)CN(CCCCCC1CCCCC1)C(CCCCN)CN(CCCCc1ccc(Br)cc1)C(CCC(=O)O)CN(CCCCCc1ccc(F)cc1)CCC(N)=O (centres undefined) [N-acylpolyamine (NAPA) scaffold, 36]

From BindingDB's records for doi:10.1016/j.bmc.2009.10.032 (NIH, 2009)
